One series deals with ERK mutant cell (DN-ERK). Put plainly: ALP activity in ERK mutant cell. The conditions noted are these: 10 μM; FIG. 11D. The format is cell-based. The procedure:
Bone cells were cultured and treated with (1) 10 μM SB203580, (2) 10 μM PD98059, (3) 10 μM imperatori, (4) 10 μM bergapten, (5) 10 μM imperatorin+SB203580, (6) 10 μM bergapten+SB203580, (7) 10 μM imperatorin+PD98059 ? (8) 10 μM bergapten+PD98059 for 48 hrs. After treatment, the bone cells were lysed in 0.2% […] solution and centrifuged at 1500×g for 5 minutes. The supernatant was analyzed by an ALP kit such as described above to obtain the ALP activity. The ALP activity in the control group which was treated with 0.1% DMSO was defined as 100%. Referring to FIG. 11C, p38 inhibitor (SB203580) and ERK inhibitor (PD98059) suppressed the imperatorin and bergapten induced-ALP activity.
The same procedure carried out in Example 20 was repeated. The experiment group used alternative cells and treatment comprising: (1) DN-p38 cell, (2) DN-ERK cell, (3) DN-p38 cell+10 μM imperatorin, (4) DN-p38 cell+10 μM bergapten, (5) DN-ERK cell+10 μM imperatorin, (6) DN-ERK cell+10 μM bergapten, (7) normal bone cell+10 μM imperatorin, and (8) normal bone cell+10 μM bergapten. The ALP activity in the control group which was treated with 0.1% DMSO was defined as 100%. Referring to FIG. 11D, the ALP activity was not induced in p38 mutant cell (DN-p38) and ERK mutant cell (DN-ERK) by imperatorin and bergapten.

Series [1] deals with Bone cells. The series can be described thus: Collagen secretion in bone cells. The format is cell-based, rat. The conditions noted are these: for collagen secretion in the bone cells: 0.3, 1, 3, 10 μM, FIG. 8B; for increase of collagen content / collagen synthesis: 'at least' figure. The procedure: (§1) Rat primary osteoblast was isolated from the parietal bone of gestation day 18 embryos of Sprague-Dawley rats. After being slaughtered, the embryo rats were obtained from the uteruses of the rats, and calvarium was isolated from the embryo rats. Parietal bone was cut from the calvarium and digested by 0.1% collagenase for 20 minutes to release the bone cells from the bone tissue. The digestion step was repeated five times. The collected bone cells were cultured in α-MEM containing 1% penicillin-streptomycin and 10% FBS in a humidified atmosphere of 5 percent carbon dioxide. When cells were attached and confluence, they were sub-cultured, which was called “passage 2 (P2)”. The passage was for analogizing. 2 to 5 passage cells were used for the experiments.
Bone cells were treated with 0.3, 1, 3, and 10 μM of imperatorin and bergapten, respectively. After treatment, the cells were lysed in 6N HCl at 116° C. for 16 hrs, and dried in a vacuum. The resultant residue was dissolved in an equal volume of water, and then absorbance was measured at […]. The collagen secretion in the control group which was treated with 0.1% DMSO was defined as 100%. Referring to FIG. 8B, imperatorin and bergapten both increased the collagen secretion in the bone cells

For another series, the system named is EPK protein. Put plainly: Phosphorylation of EPK protein (western blot). The format is cell-based, rat. The conditions noted are these: 10 μM, 1, 3, 6, 12, 24 hrs; FIG. 10. The procedure:
as §1
(§2) Bone cells was cultured in 6-well plate and treated with 10 μM of imperatorin and bergapten for 1, 3, 6, 12, and 24 hrs, respectively. […] Following incubation with the secondary antibody, the membrane was washed three times with PBST, and detected by an […] chemiluminescence using an ECL blotting substrate according to the manufacturer's instructions. […]

Another series concerns p38. The series can be described thus: Phosphorylation of p38 (western blot). The series is classed as cell-based, rat. The following applies: 10 μM, 1, 3, 6, 12, 24 hrs; FIG. 10. The procedure: as §1, §2
Series [2] has as its system Bone cells. The series can be described thus: Cell viability (MTT). The format is cell-based, rat. The conditions noted are these: 0.3, 1, 3, 10 μM, 48 hrs, FIG. 7A. The procedure: as §1
Bone cells were cultured in 96-well plate and treated with 0.3, 1, 3, and 10 μM of imperatorin and bergapten for 48 hrs, respectively. After treatment, the cells were reacted with MTT solution (0.5 mg/ml) at 37° C. for 30 minutes, lysed in 100 μl DMSO, and then absorbance was measured at […]. The cell viability in the control group which was treated with 0.1% DMSO was defined as 100%.

A further series concerns Male Sprague-Dawley rats. Put plainly: Animal experiment: local administration into the tibia. The series is classed as in vivo, rat. The conditions noted are these: for bone volume of tibia metaphysis / BMC / BMD / BV/TV (bone volume/tissue volume): 30 μM every day for a week through needle into tibia; for bone volume of tibia metaphysis: FIG. 12; for increase of bone mineral content / increase of bone mineral density: 'at least' figure, matches Table 3 vs control; for BMC / BMD / BV/TV (bone volume/tissue volume): tibia. The procedure:
Male Sprague-Dawley rats (weighing 78 to 90 grams, at three weeks of age) were anesthetized with […] of trichloroacetaldehyde monohydrate. […] needle was sterilized and injected into the tibia of the rats. One day after the injection, the rats were administered with normal saline as the control, 30 μM imperatorin, and 30 μM bergapten every day for a week through the needle, respectively. Then, the rats were slaughtered after the last administration, and the tibias were immediately isolated after slaughtering and subject to BMD, BMC, and histochemical examination. Referring to FIG. 12, the bone volume of tibia metaphysis was increased by imperatorin and bergapten.

As for `COc1c2ccoc2cc2oc(=O)ccc12` [bergapten], the “ALP activity in ERK mutant cell (DN-ERK)” value in the series with ERK mutant cell (DN-ERK) is recorded as “not induced”. For the same molecule, in the series with Bone cells [1], the “collagen secretion in the bone cells” value is given as “increased” and the “increase of collagen content / collagen synthesis” value is reported as “at least 100%”. For the same molecule, the “phosphorylation of EPK protein” value in the series with EPK protein is “induced”. Moreover, in the series with p38, the “phosphorylation of p38” value is recorded as “induced”. For the same molecule, the cell viability entry with Bone cells [2] was “did not suppress”. Also, in the series on Male Sprague-Dawley rats, the “bone volume of tibia metaphysis” value was “increased”, the “increase of bone mineral content” value was at least 33.7%, the “increase of bone mineral density” value is listed as “at least 12.2%” and the BMC was 0.111 ± 0.003 g. In addition, in the series with Male Sprague-Dawley rats, the BMD turned out to be 0.101 ± 0.002 g/mL and the “BV/TV (bone volume/tissue volume)” value worked out at 18.1 ± 0.4 %.
For `CC(C)=CCOc1c2occc2cc2ccc(=O)oc12` [imperatorin], the “ALP activity in ERK mutant cell (DN-ERK)” value in the series with ERK mutant cell (DN-ERK) is “not induced”. Moreover, in the series on Bone cells [1], the “collagen secretion in the bone cells” value is recorded as “increased” and the “increase of collagen content / collagen synthesis” value is “at least 102.0%”. The “phosphorylation of EPK protein” value in the series on EPK protein is recorded as “induced”. Also, the “phosphorylation of p38” value in the series on p38 is listed as “induced”. Also, in the series with Male Sprague-Dawley rats, the “bone volume of tibia metaphysis” value is “increased”, the “increase of bone mineral content” value is at least 28.91%, the “increase of bone mineral density” value is “at least 12.22%” and the BMC is 0.107 ± 0.003 g. For the same molecule, in the series with Male Sprague-Dawley rats, the BMD worked out at 0.101 ± 0.002 g/mL and the “BV/TV (bone volume/tissue volume)” value stood at 17.6 ± 0.6 %.

The record behind these values is patent publication US7914821B2, “Pharmaceutical composition for prevention and/or treatment of bone loss” (KO DA Pharmaceuticals Co., Ltd., priority 2008, dated 2011).
